Where two headings read alike, the source gives them in different places.
What was measured:
[1] = tested on: IL-10; test: IL-10 secretion assay in human PBMCs (PHA-M-stimulated, ELISA); type: cell-based; details: PBMC, PHA-M 10 ug/mL 40 hr, read-out: IL10 inhibitory activity IC50
Description: Fetal bovine serum (FBS) was obtained from ThermoFisher (Cat #16000044). • Other reagents: 96well TC plates were obtained from ThermoFisher (Cat #07-2000-90).
Cryopreserved PBMCs were thawed in a water bath and transferred to 50 mL polypropylene tubes. The cells were washed two times with 25 mL of RPMI medium supplemented with 5% of regular FBS and re-suspended at a density of 1.5×10^6 cells/mL. The cells were plated into 96 well TC plate (100 uL/well). Serially diluted compound was added to the cells in duplicate wells for each concentration. Control wells received DMSO only (0.3% final). The cells were pre-incubated with compound for 2 hr. After pre-incubation, the cells were stimulated by PHA-M (10 ug/mL) for 40 hr. Control samples with and without PHA-M in the absence of compound were assembled in each test plate. IL-10 was detected in media supernatants by using a sandwich anti-IL10 ELISA kit (BD Biosciences) according to protocol provided by the manufacturer. ELISA readout (optical density at 450 nm) is commensurable with the amount of IL-10 produced by the cells. Assay window was determined in each experiment by comparing average OD450 values in stimulated and un-stimulated samples in the absence of compound. ELISA calibration was performed in each detection plate using serially diluted recombinant human IL-10 standard to ensure that OD450 values for all test samples were within linear range of detection.%-Inhibition by compound was calculated using following equation:
[formula] • where OD450100% is optical density in control samples stimulated with PHA-M without compound, OD4500% is optical density in unstimulated control samples, and OD450compound is optical density in a sample stimulated with PHA-M in the presence of compound. The calculated %-Inh values were plotted against compound concentration. To determine IC50 values, dose-response curves were fitted by a 4-parameter sigmoid inhibition model using XLFit® software (IDBS).

[2] = biological target: T1, Recombinant human ALOX15 (Arachidonate 15-Lipoxygenase) (Homo sapiens, UniProt P16050); test: Biochemical LOX-15 assay
T1 construct: full length encompassing amino acids 2-662(end); FLAG (N); purchased BPS Biosciences 50220
T1 sequence (P16050 2-662): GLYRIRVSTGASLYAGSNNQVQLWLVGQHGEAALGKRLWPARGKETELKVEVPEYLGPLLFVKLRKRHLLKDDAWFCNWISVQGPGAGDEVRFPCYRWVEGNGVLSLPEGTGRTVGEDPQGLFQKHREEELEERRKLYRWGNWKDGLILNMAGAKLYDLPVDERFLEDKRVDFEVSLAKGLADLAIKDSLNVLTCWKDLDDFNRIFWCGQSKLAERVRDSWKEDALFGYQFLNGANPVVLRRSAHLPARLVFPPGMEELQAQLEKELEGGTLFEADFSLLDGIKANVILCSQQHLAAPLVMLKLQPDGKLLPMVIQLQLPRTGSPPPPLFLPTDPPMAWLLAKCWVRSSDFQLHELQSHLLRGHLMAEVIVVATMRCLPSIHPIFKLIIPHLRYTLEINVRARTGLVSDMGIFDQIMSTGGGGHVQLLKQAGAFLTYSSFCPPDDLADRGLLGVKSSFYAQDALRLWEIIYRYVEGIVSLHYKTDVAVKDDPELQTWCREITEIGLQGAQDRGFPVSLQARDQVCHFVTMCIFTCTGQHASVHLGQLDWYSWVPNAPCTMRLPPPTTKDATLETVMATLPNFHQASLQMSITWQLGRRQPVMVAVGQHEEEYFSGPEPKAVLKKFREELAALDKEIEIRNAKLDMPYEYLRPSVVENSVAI
Source text: • Recombinant human ALOX15 (Arachidonate 15-Lipoxygenase), full length encompassing amino acids 2-662(end). In this construct the N-terminal end of ALOX15 is fused with a FLAG tag was obtained from BPS Biosciences (Cat #50220). • Dihydrorhodamine 123, DHR, was obtained from Sigma (Cat #1054) • Arachidonic acid, AA, was obtained from Sigma (Cat #A3611) • Other reagents: black 384 well assay plates were obtained from Corning (Cat #3820). • Equipment: Synergy Neo2 Multi-mode plate reader (Biotek), Labcyte 550 acoustic dispenser (Labcyte), Biomek FX robotic dispenser (Beckman Coulter), Sorvall Legend RT centrifuge (Kendro).
The LOX-15 assay was performed in assay buffer comprising: 50 mM Tris (pH 7.5),), 5 uM DHR, 50 uM AA, and 50 nM recombinant enzyme. Serially diluted compounds were prepared in DMSO in Echo qualified 384 well plates. An assay buffer was then prepared without supplemented 10 uM DHRA. 10 uL of the supplemented buffer was dispensed into control (no enzyme) wells in the black 384well assay plate. Next, a 2× enzyme solution was prepared, comprising 100 nM LOX-15 enzyme in the supplemented assay buffer. 10 uL of the 2× enzyme solution was then dispensed into test wells in the black 384well assay plate. Serially diluted compounds were added to the assay plate by acoustic dispensing (Labcyte 550). Control wells received DMSO only.
Next, the 2× substrate was prepared to comprise 100 uM arachidonic acid in the assay buffer. 10 uL of the 2× substrate was then added to all wells in the assay plate. The plate was incubated for 3 hours. The plate was read on Synergy Neo2 in fluorescence mode: excitation 485 nm, emission 530 nm. % inhibition and the resulting IC50 was calculated for the compound using the following equation:
[formula] • where RFU100% is fluorescence in control samples without compound, RFU0% is fluorescence in control samples without LOX-15, and RFUcompound fluorescence in a sample with compound.
The calculated %-Inh values were plotted against compound concentration. To determine IC50 values, dose-response curves were fitted by a 4-parameter sigmoid inhibition model using XLFit® software (IDBS).

[3] = 50 nM recombinant enzyme, 50 uM AA, read-out: 15-Lox inhibitory activity IC50

For `CCCCCC1=CC(=O)C2=C(OC(C)(CCC=C(C)C)C=C2)C1=O` (stereo not shown) [Formula II], the IC50 [1] was 780 nM and the IC50 [2, 3] was 5.4 µM.
In the case of `CCCCCc1cc(OC(C)=O)c2c(c1OC(C)=O)OC(C)(CCC=C(C)C)C=C2` (stereo not shown) [Formula XXIII], the IC50 [1] is reported as 920 nM and the IC50 [2, 3] is reported as over 10 µM.
For `CCCCCc1cc(O)c2c(c1O)OC(C)(CCC=C(C)C)C=C2` (stereo not shown) [Formula XXII], the IC50 [1] was 920 nM and the IC50 [2, 3] was 1.22 µM.
With `CCCCCc1cc(OC)c2c(c1OC)OC(C)(CCC=C(C)C)C=C2` (stereo not shown) [Formula XXIV] the IC50 [1] was over 10000 nM and the IC50 [2, 3] was over 10 µM.
Compound `CCCCCC1=C(NCC)C(=O)C2=C(OC(C)(CCC=C(C)C)C=C2)C1=O` (stereo not shown) [Formula XXVIII] has an IC50 [1] of over 10000 nM and an IC50 [2, 3] of over 10 µM.
`CC(C)=CCCC1(C)C=CC2=C(O1)C(=O)c1ccccc1C2=O` (stereo not shown) [Formula XXVII] was tested, and the IC50 [1] was over 10000 nM and the IC50 [2] was over 10 µM.
`CCCCCC1=CC(=O)C2=C(O[C@](C)(CCC=C(C)C)C=C2)C1=O` [Formula XXVI] was tested, and the IC50 [1] was 380 nM and the IC50 [2, 3] was 1.93 µM.
With `CCCCCC1=C(NCCC)C(=O)C2=C(OC(C)(CCC=C(C)C)C=C2)C1=O` (stereo not shown) [Formula XXV] the IC50 [1] was over 10000 nM and the IC50 [2, 3] was 5.7 µM.
